Values joined by “and” are separate entries in the source; they are usually repeats but may differ in a detail not shown here. Equal values may be shown once. “Also recorded” adds a separate entry of the source.
Key:
Aptamer 21 = assay: Surface plasmon resonance (SPR) binding to Aptamer 21; conditions: listed as ARK-139
Excerpt: Surface plasmon resonance (SPR) may be used to screen ligands and hook and click constructs for binding to a target RNA of interest. SPR is especially useful for monitoring biomolecular interactions in real time. Typically, target species and unrelated control are immobilized to a sensor chip, then analytes (compounds/fragments) are flowed over the surface. Binding of the compound to target species results in increase of SPR signal (association phase). Washing away bound compound with buffer results in a decrease of SPR signal (dissociation phase). Fitting of sensorgrams recorded at different compound concentrations is performed to an appropriate interaction model. The method allows extraction of kinetic parameters (ka, kd→KD). Requirements/limitations include that the ka/kd values be in reasonable ranges; and the target size must not be too large (<100 kDa). It is an excellent method to screen fragments and profile or validate hits. BC4000 may be used for primary screening (up to 4,000 data pts/week). Biacore T200 is suitable for hit profiling and validation.
In the PEARL-seq context, SPR allows monitoring binding of “hooks” to DNA/RNA aptamers. The target species is immobilized to sensor chip, analytes (i.e. hooks) are flowed over surface (association phase), DNA/RNA aptamer is flowed over surface (plateau phase), competitor compound is washed over surface (dissociation phase), thus yielding binding data.
Experiments were performed on a MASS-2 (Sierra Sensors) at 25° C. A high capacity amine chip was equilibrated with PBS. The chip was conditioned with alternating injections of 10 mM HCl and 10 mM NaOH in 1 M NaCl. The carboxymethylated dextran of the surface of the amine chip was activated for 7 minutes at a flow rate of 10 μL/min using a 1:1 volume ratio of 0.4 M 1-ethyl-3-(3-dimethylaminopropyl) carbodiimide (Sierra) and 0.1 M N-hydroxysuccinimide (Sierra). Neutravidin (70 μg/mL, Thermofisher) was injected over the activated surface for 10 minutes at a flow rate of 10 μl/min. Excess activated groups were blocked by an injection of 1 M ethanolamine, pH 8.5 (Sierra) for 7 minutes at a flow rate of 10 μl/min. A final injection of 10 mM NaOH in 1 M NaCl for 7 minutes at 10 μl/min was used to remove any unbound material to the chip. The immobilization reaction typically yielded approximately 12,000 resonance units (RU) of neutravidin. At least one spot in a channel was not injected with RNA and was used as a background control. Unrelated RNA was also used as a background control.
A 1 μM sample of biotin-aptamer 21 was prepared in RNAse free water, heated to 95° C. for 3 minutes, cooled on ice for 4 minutes, diluted with an equal volume 2× folding buffer (40 mM Tris-HCl, pH 8.0, 6 mM MgCl2, 200 mM KCl), and incubated at 37° C. for 30 minutes. The final concentration of RNA was 0.5 μM.
The MASS-2 was primed 2 times with 20 mM Tris-HCl, pH 8.0, 3 mM MgCl2, 100 mM KCl (Capture Buffer). RNA was injected over the neutravidin surface for 7 minutes at a flow rate of 10 μl/min. Capture levels typically reached approximately 3500-4500 of resonance units of aptamer 21.
Compounds were diluted 2-fold in 100% DMSO at a starting concentration of 500 μM.
The MASS-2 was primed 2 times with 20 mM Tris-HCl, pH 8.0, 3 mM MgCl2, 100 mM KCl, 1% DMSO (running buffer). Prior to testing compounds 3 injections of running buffer were used to equilibrate the sensor surface. […]

Aptamer 21-E = assay: SHAPE-MaP on Aptamer 21-E with and without ligand; conditions: suggesting weak binding
Description: The SHAPE-MaP approach exploits conditions that cause reverse transcriptase to misread SHAPE-modified nucleotides and incorporate a nucleotide non-complementary to the original sequence into the newly synthesized cDNA. The positions and relative frequencies of SHAPE adducts are recorded as mutations in the cDNA primary sequence. In a SHAPE-MaP experiment, the RNA is treated with a SHAPE reagent or treated with solvent only, and the RNA is […]. RNA from each experimental condition is reverse-transcribed, and the resulting cDNAs are then sequenced. […]
SHAPE-MaP can be performed and analyzed according to detailed published methods (Martin et al., RNA 2012; 18:77-87; McGuinness et al., J. Am. Chem. Soc. 2012; 134:6617-6624; Siegfried et al., Nature Methods 2014; 11:959-965; Lavender et al., PLoS Comput. Biol. 2015; 11(5)e1004230; McGuinness et al., Proc. Natl. Acad. Sci. USA 2015; 112:2425-2430). The SHAPE-MaP sequence data can be analyzed using ShapeFinder (Vasa et al., RNA 2008; 14:1979-1990) or ShapeMapper (Siegfried et al., Nature Methods 2014; 11:959-965) or other software. […]
For all SHAPEware analysis, reads were adapter-trimmed aligned as previously described (https://bitbucket.org/arrakistx/shapeware/src) using Trimmomatic (http://dx.doi.org/10.1093/bioinformatics/btu170) and bwa-mem (https://arxiv.org/abs/1303.3997), respectively. […]

Kd (Aptamer 21; binding to Aptamer 21, read-out: calculated KD by SPR): 0.568 µM and 0.42 µM | binding to Aptamer 21 by SPR (Aptamer 21): binds; also recorded: SPR-active
Structure (SMILES): COC(=O)C1=C(COCc2cn(CCOCCOCCO)nn2)NC(c2ccncc2)=NC1c1ccc(F)cc1Cl (racemic) [I-1]
alteration in SHAPE reactivity of Aptamer 21-E in presence of ligand (Aptamer 21-E): almost no alteration

From patent publication US12503455B2, “Nucleic acid-binding photoprobes and uses thereof” (Arrakis Therapeutics, Inc., priority 2017, dated 2025)
